From US20200030355A1, “COMBINATION THERAPY FOR TREATING CANCER” (Epizyme, Inc., priority 2014, published 2020)
Structures can show the parent of a compound that is named as a salt.

How the values were obtained:
Assay type in all cases: cell-based, human
[1] = system: MV4-11 (MLL-AF4); experiment: Combination proliferation study with Compound A2 (ATP/CellTiter-Glo, Chou-Talalay combination index); settings: for Combination with Compound A2, MV4-11 (MLL-AF4) / Combination with Compound A2, MV4-11: 7 Day Cotreatment Model; for Combination with Compound A2, MV4-11 (MLL-AF4): Table 4; for Combination with Compound A2, MV4-111 MLL-AF4: Table 2, Example 3; for Combination with Compound A2, MV4-11: Table 5
Method: (§1) The acute myelogenous leukemia cell lines MV4-11 (MLL-AF4) and MOLM-13 (MLL-AF9) were obtained from American Type Culture Collection (ATCC; Rockville, Md.) and Deutsche Sammlung von Mikroorganismen and Zellkulturen (DSMZ; Braunschweig, Germany) respectively.
(§2) Studies were performed using MLL-rearranged cell lines in vitro to evaluate the anti-proliferative effect of a combination of two agents together on cell growth. Initial proliferation studies were performed to determine the IC50 of a given compound in each cell line. The cell counts were measured by ATP quantitation using the Promega Cell Titer Glo kit and luminescence values corresponded to the amount of ATP in a given well.
(§3) Compounds were evaluated for synergy in the co-treatment phase by testing the compounds in a concentration range which was bracketed around their IC50 values. The compounds were plated to a 96 well plate in a matrix format (FIG. 3) which includes increasing concentrations of each drug in the combination in a constant ratio, in addition to the effect of each compound alone in the study. Cells were seeded and grown in the log-linear phase for 3 or 7 days in the co-treatment phase. Minimum inhibition (DMSO alone) controls were used in each plate to calculate fraction affected (Fa) of a test well. DMSO concentration was kept at 0.1% v/v.
(§4) The drug combination analysis was performed utilizing the Chou-Talalay method Synergy was determined using the software package Calcusyn by Biosoft. The combination index (CI) is a quantitative term used to describe the level of synergy or antagonism in a given test system. A combination index less than one indicates synergy, and a CI greater than one indicates antagonism. Further, strong synergism is achieved when the CI value falls below 0.3.
(§5) Graphs representing values of combination index (CI) versus Fractional effect (Fa) known as Fa-CI plots were generated and synergy was evaluated. Drug synergy was statistically defined by CI values less than 1, antagonism by CI>1 and additive effect by CI equal to 1.
as §5
The HP-D300 digital dispenser (Tecan) was used to dispense compounds in a combinatorial matrix. […] Cell viability was measured via ATP content using CellTiter-Glo® (Promega).
Viability was determined using CellTiter-Glo® (Promega).
Proliferation studies were performed using MOLM-13, MV4-11 and SKM-1 cell lines in vitro to evaluate the cancer cell killing effect of a combination of two agents together on cell growth. Initial proliferation studies were performed to determine the IC50 values of a given compound in each cell line. The cell counts were measured by ATP quantitation using the Promega Cell Titer Glo kit and luminescence values correspond to the amount of ATP in a given well.
These studies were performed to evaluate both the combinatorial effect of compounds on cell killing and the durability of the effect by washing out one of the agents.
Compounds evaluated for synergy in the co-treatment phase were tested in a range which was bracketed around the IC50's. The compounds were plated to a 96 well plate in a matrix format which includes increasing concentrations of each drug in the combination in a constant ratio, in addition to the effect of each compound alone in the study.

[2] = system: MOLM-13 (MLL-AF9); experiment: as above; settings: for Combination with Compound A2, MOLM13: Table 5
Method: as §1, §2, §3, §4, §5
Graphs representing values of combination index (CI) versus Fractional effect (Fa) known as Fa-CI plots were generated and synergy was evaluated. Drug synergy was statistically defined by CI values less than 1, antagonism by CI>1 and additive effect by CI equal to 1. […]
Cell viability was measured via ATP content using CellTiter-Glo® (Promega).
Proliferation studies were performed using MOLM-13, MV4-11 and SKM-1 cell lines in vitro to evaluate the cancer cell killing effect of a combination of two agents together on cell growth. Initial proliferation studies were performed to determine the IC50 values of a given compound in each cell line. The cell counts were measured by ATP quantitation using the Promega Cell Titer Glo kit and luminescence values correspond to the amount of ATP in a given well. […]
Compounds evaluated for synergy in the co-treatment phase were tested in a range which was bracketed around the IC50's.

[3] = system: MOLM-13 cells; experiment: EPZ-5676 300 nM 7-day pre-treatment, then second compound 72 hours, ATPLite, IC50 shift (Example 6); settings: 300 nM EPZ-5676 or DMSO 7-day pre-treatment, then 2nd compound 72 hours, Synergy = IC50 of 2nd compound decreased by 2-fold or more vs DMSO control
Method: Cells were then equilibrated in incubators for 24 hours before treatment with a second compound. Treated assay plates were incubated with a second compound for 72 hours. After this time, plates were developed for endpoint analysis using ATPLite to measure ATP content, which is used as an indicator of cell viability.
“N/D” means that IC50 of the second compound could not be determined for both conditions.

[4] = 7 Day Cotreatment Model, Table 4

SMILES | Combination with Compound A2, MV4-11 (MLL-AF4) [1] | Combination with Compound A2, MOLM-13 (MLL-AF9) [2, 4] | further results
N[C@@H]1C[C@H]1c1ccccc1 (racemic) [Tranylcypromine] | Synergy (Drug synergy was statistically defined by CI values less than 1) | Strong Synergy | Combination of Compound A2 and anti-cancer agent, MV4-11 ([1]; 7 Day Cotreatment): synergy; Combination of Compound A2 and anti-cancer agent, MOLM-13 ([2]; 7 Day Cotreatment): synergy
CC1(C)CCC(CN2CCN(c3ccc(C(=O)NS(=O)(=O)c4ccc(NCC5CCOCC5)c([N+](=O)[O-])c4)c(Oc4cnc5[nH]ccc5c4)c3)CC2)=C(c2ccc(Cl)cc2)C1 [ABT-199] | Synergy (Drug synergy was statistically defined by CI values less than 1) | Additive --> Synergy | 
C[C@@H]1COCCN1c1cc(C2(S(C)(=O)=O)CC2)nc(-c2cccc3[nH]ccc23)n1 [AZ20] |  |  | Combination with Compound A2, MOLM13 ([2]; 7 Day Cotreatment Model): Synergy (Drug synergy was statistically defined by CI values less than 1)
Cn1c(=O)n(-c2ccc(C(C)(C)C#N)cc2)c2c3cc(-c4cnc5ccccc5c4)ccc3ncc21 [BEZ235] |  |  | Combination with Compound A2, MOLM13 ([2]; 7 Day Cotreatment Model): Additive (additive effect by CI equal to 1)
Nc1nc(Cl)nc2c1ncn2[C@@H]1O[C@H](CO)[C@@H](O)[C@@H]1F [Clofarabine] | Synergy (Drug synergy was statistically defined by CI values less than 1) | Synergy (Drug synergy was statistically defined by CI values less than 1) | 
O=C(Nc1ccncc1)c1cc([N+](=O)[O-])ccc1Cl [Compound T0070907] |  |  | Combination with Compound A2, MOLM13 ([2]; 7 Day Cotreatment Model): Additive (additive effect by CI equal to 1); Combination with EPZ-5676 ([2]; MOLM-13 cells, co-treatment model of Example 3): Synergy (Drug synergy was statistically defined by CI values less than 1)
Nc1ncn([C@H]2C[C@H](O)[C@@H](CO)O2)c(=O)n1 [Decitabine] | Synergy (Drug synergy was statistically defined by CI values less than 1) | Synergy (Drug synergy was statistically defined by CI values less than 1) | Combination with Compound A2, MV4-111 MLL-AF4 [1]: Synergy (Drug synergy was statistically defined by CI values less than 1); Combination with Compound A2, MOLM-13 (MLL-AF9) ([2]; Table 2, Example 3): Synergy (Drug synergy was statistically defined by CI values less than 1)
Nc1nc(F)nc2c1ncn2[C@@H]1O[C@H](CO)[C@@H](O)[C@@H]1O [Fludarabine] |  | Synergy (Drug synergy was statistically defined by CI values less than 1) | 
NC(=O)NO [Hydroxyurea] | Synergy (Drug synergy was statistically defined by CI values less than 1) | Synergy (Drug synergy was statistically defined by CI values less than 1) | 
C=CC(=O)N1CCC[C@@H](n2nc(-c3ccc(Oc4ccccc4)cc3)c3c(N)ncnc32)C1 [Ibrutinib] | Synergy (Drug synergy was statistically defined by CI values less than 1) |  | 
Cc1sc2c(c1C)C(c1ccc(Cl)cc1)=N[C@@H](CC(=O)OC(C)(C)C)c1nnc(C)n1-2 [JQ1] | Additive (additive effect by CI equal to 1) | Additive (additive effect by CI equal to 1) | Combination with Compound A2, MV4-111 MLL-AF4 [1]: Additive (additive effect by CI equal to 1); Combination with Compound A2, MOLM-13 (MLL-AF9) ([2]; Table 2, Example 3): Additive (additive effect by CI equal to 1)
Nc1cccc2c1CN(C1CCC(=O)NC1=O)C2=O (stereo not drawn) [Lenalidomide] |  | Combination Benefit | 
CCCc1cc2c(N3CCN(C4=NCC(C)(C)S4)CC3)ncnc2s1 [Menin-MLL inhibitor MI-2] | Synergy (Drug synergy was statistically defined by CI values less than 1) | Synergy (Drug synergy was statistically defined by CI values less than 1) | 
CO[C@@H]1[C@H](N(C)C(=O)c2ccccc2)C[C@H]2O[C@]1(C)n1c3ccccc3c3c4c(c5c6ccccc6n2c5c31)C(=O)NC4 [Midostaurin] | Synergy (Drug synergy was statistically defined by CI values less than 1) |  | 
COC1=CC(c2cc3ccccc3[nH]2)=N/C1=C\c1[nH]c(C)cc1C [Obatoclax] |  | Additive (additive effect by CI equal to 1) | 
O=C(Nc1ccccc1-c1cn2c(CN3CCNCC3)csc2n1)c1cnc2ccccc2n1 [SRT-1720] | Synergy (Drug synergy was statistically defined by CI values less than 1) |  | MOLM-13 (summary of combination study: EPZ-5676 + 2nd compound) [3]: Synergy (considered synergistic if the IC50 value of the second compound decreased by 2-fold or more when EPZ-5676 was added as compared to the DMSO control)
Cc1coc2c1C(=O)C(=O)c1c-2ccc2c1CCCC2(C)C [TANSHINONE IIA] |  |  | MOLM-13 (summary of combination study: EPZ-5676 + 2nd compound) [3]: Synergy (considered synergistic if the IC50 value of the second compound decreased by 2-fold or more when EPZ-5676 was added as compared to the DMSO control)
CO[C@H]1C[C@@H]2CC[C@@H](C)[C@@](O)(O2)C(=O)C(=O)N2CCCC[C@H]2C(=O)O[C@H]([C@H](C)C[C@@H]2CC[C@@H](OC(=O)C(C)(CO)CO)[C@H](OC)C2)CC(=O)[C@H](C)/C=C(\C)[C@@H](O)[C@@H](OC)C(=O)[C@H](C)C[C@H](C)/C=C/C=C/C=C/1C [Temsirolimus] |  |  | MOLM-13 (summary of combination study: EPZ-5676 + 2nd compound) [3]: Synergy (considered synergistic if the IC50 value of the second compound decreased by 2-fold or more when EPZ-5676 was added as compared to the DMSO control)
Cn1cncc1[C@@](N)(c1ccc(Cl)cc1)c1ccc2c(c1)c(-c1cccc(Cl)c1)cc(=O)n2C [Tipifarnib] |  |  | Combination with Compound A2, MV4-11 [1]: Synergy (Drug synergy was statistically defined by CI values less than 1); MOLM-13 (summary of combination study: EPZ-5676 + 2nd compound) [3]: Synergy (considered synergistic if the IC50 value of the second compound decreased by 2-fold or more when EPZ-5676 was added as compared to the DMSO control)
CC[C@@]1(O)C(=O)OCc2c1cc1n(c2=O)Cc2cc3c(CN(C)C)c(O)ccc3nc2-1 [Topotecan Hydrochloride] |  |  | MOLM-13 (summary of combination study: EPZ-5676 + 2nd compound) [3]: Synergy (considered synergistic if the IC50 value of the second compound decreased by 2-fold or more when EPZ-5676 was added as compared to the DMSO control)
CC(C)C[C@H](NC(=O)[C@H](Cc1ccccc1)NC(=O)c1cnccn1)B(O)O [Velcade, bortezomib] |  | Combination Benefit | 
CC[C@@H]1C(=O)N(C)c2cnc(Nc3ccc(C(=O)N[C@H]4CC[C@H](N5CCN(CC6CC6)CC5)CC4)cc3OC)nc2N1C(C)C [Volasertib] |  |  | Combination with Compound A2, MV4-11 [1]: Antagonstic
COc1ccc(Cl)c(Nc2nc3ccccc3nc2NS(=O)(=O)c2cccc(NC(=O)C(C)(C)N)c2)c1 [XL147] |  |  | MOLM-13 (summary of combination study: EPZ-5676 + 2nd compound) [3]: Synergy (considered synergistic if the IC50 value of the second compound decreased by 2-fold or more when EPZ-5676 was added as compared to the DMSO control)
